Series [1] concerns Salmonella typhimurium strain TA 98, TA 100, TA 1535, TA 1537 and Escherichia coli strain WP2 avrA. Briefly: Ames test (bacterial reverse mutation assay). It counts as cell-based. As to conditions: 10-1000 μg per plate, with and without metabolic activation (rat liver supernatant). As for the experimental part:
Para-topolin and para-topolin mesylate were tested for mutagenicity by a bacterial reverse mutation assay. The performance of the test was based on the EU method B.13/14 Mutagenicity-Reverse mutation test using bacteria, Council Regulation (EC) No. 440/2008, which is analogous to the OECD Test Guideline No. 471. Four indicators of Salmonella typhimurium strain TA 98, TA 100, TA 1535, TA 1537 were used and one Escherichia coli strain WP2 avrA was also used. The test substances were dissolved in dimethyl sulfoxide (DMSO) and tested at doses of 10-1000 μg per plate, which was applied to 0.1 ml plates. The experiments were performed with metabolic activation with rat liver supernatant and cofactor mixture as well as without metabolic activation.
A general note: The Ames test detects mutagens through reverse mutation in bacteria.

The subject of series [2] is Human diploid fibroblast BJ. Briefly: MTT cytotoxicity assay in normal fibroblasts. It counts as cell-based. The conditions noted are these: 72 hours. As to the method:
MTT (metabolic tetrazolium toxicity) assay is a standard colorimetric assay for evaluation of cytotoxicity. Mitochondrial dehydrogenase activity converts yellow MTT into violet formazan which is measured by means of spectrometry. Human diploid fibroblast BJ (passage 18-22) were seeded into 96-well plate (5.000 cells per well). After 6 hours cultivation medium (DMEM with 5 g/l glucose, 2 mM glutamine, 100 U/ml penicillin, […] streptomycin, 10% fetal calf serum and sodium bicarbonate) was replaced with the cultivation medium containing test compounds in concentration range of 0-200 μM. Highest concentration was adjusted if the solubility of the compound was limiting. Every concentration was tested in pentaplicate. MTT was added to the cells after 72 hours incubation (final concentration 0.5 mg/ml) and incubation continued for another 3 hours. MTT was solubilised by DMSO and absorbance at 570 nm was measured. Growth inhibition (GI) was estimated using the following equitation: GI=(mean A drug exposed wells-mean Ablank/mean Acontrol wells−mean Ablank)×100%. The GI20 value, the drug concentration causing 20% decrease in mitochondrial dehydrogenase activity, was calculated from the obtained dose response curves.
A general note: Tetrazolium assays rely on reduction of a dye to a coloured formazan, in cell work by metabolically active cells.

The subject of the next series is Rat glioma C6 cells. Briefly: Anti-inflammatory activity: isoproterenol-induced intracellular cAMP synthesis. The series is classed as cell-based. As for the experimental part:
The anti-inflammatory activity of para-topolin and para-topolin mesylate was determined; cytokinin kinetin was also evaluated as a control. Rat glioma C6 cells (ATCC No. CCL107) were cultured in a monolayer in chemically defined beser medium containing Ham's F10/minimal essential medium (1:1 v/v), 2 mM L-glutamine, 1% (v/v). Minimum vitamins of essential medium (100×), 1% (v/v) minimum essential amino acids (100×), 100 U/ml penicillin, […] streptomycin and 30 nM sodium selenite. Incubation was performed at 37° C. in a 100% humidified atmosphere. The assays were performed in logarithmic growth phase at a density of 2.5×10^5 cells/cm^2. Intracellular cAMP synthesis was induced by the addition of 5 mM (−)-isoproterenol; at the same time, various concentrations of tested compounds were added at the same time as (−)-isoproterenol. After 30 minutes of incubation, the cellular amount of CAMP was determined by ELISA (cAMP-enzyme immunoassay from Amersham). IC50 values were determined from the […] dose-response curve.

For series [3], the system named is Senescent human diploid fibroblasts. Briefly: Senescent cells (beta-galactosidase X-gal staining) in human fibroblast culture. It counts as cell-based. As to the method:
Senescent human diploid fibroblasts (cells of different levels of passage: passage 20-P20; passage 40—labeled P40; passage 80—labeled P80) were seeded in a 24-well plate (10,000 cells/well). The culture medium (DMEM containing 5 g/l glucose, 2 mM glutamine, 100 U/ml penicillin, 100 μg/ml streptomycin and 10% fetal calf serum) was removed and replaced with culture medium containing test compound in a concentration range of 0 to 12.5 μM. Each concentration was tested in triplicate. The cells were then incubated at 37° C. […] In this experiment, senescent cells, but not other cells, were stained blue due to β-galactosidase on the substrate. […] In the oldest cells, there were only blue cells, from bright blue to almost opaque in color. Both para-topolins (base and mesylate salt) were effective in maintaining much lower levels of senescent cells after 80 passages. In the case of long-term culture, the treated cells were able to live 30% longer than the control cells.

The nature of series [4]: ORAC (Oxygen Radical Absorbance Capacity), ability to scavenge free radicals. It counts as biochemical. As to conditions: n = 3. As for the experimental part: The ability of the substance to scavenge free radicals in vitro was determined using the ORAC (Oxygen Radical Absorbance Capacity) method. Briefly, 100 μl of fluorescein ([…]) and 25 μl of tested substance solution were pipetted into each well of a 96-well microtiter plate preheated to 37° C. The reaction itself was started by the addition of 25 μL 250 mM AAPH. After shaking for 5 s, the fluorescence (Ex. 485 nm, Em. 510 nm) was read every 3 min for 90 min using an Infinite 200 instrument (TECAN, Switzerland). The area under the curve was used to express the antioxidant capacity relative to trolox, which is used as a standard. […] Such activities are likely to be closely related to the electron-rich C6-hydroxybenzylamino substituent system.

A short description of series [5]: Solubility in various organic solvents. The series is classed as physicochemical. As to the method: Solubility in various organic solvents was measured using the following protocol. Approximately 10 mg portions of para-topolin and crystalline para-topolin mesylate salt were placed in different vials, separately. Five volume aliquots of each solvent were added exclusively to a vial. Between each addition, the mixture was checked for dissolution and if no dissolution was apparent, the procedure was continued until dissolution was observed or further volumes had been added.

Setting [6] is: isoproterenol-induced cAMP, C6 cells.

Converted amounts (≈) assume the structure as drawn. Where a name gives a salt, the structure may show the parent alone. Read-outs that look alike come from different tables or passages of the source.

The IC50 is the midpoint of a concentration-inhibition curve. A high value points to lower potency. As a reminder, the Solubility is the dissolved amount per volume that the medium holds. Regarding `Oc1ccc(CNc2ncnc3nc[nH]c23)cc1` [para-topolin, 6-(4-Hydroxybenzylamino) purine], in series [1], the Mutagenicity entry is listed as “non-mutagenic”. The “Cytotoxicity for Human Diploid Fibroblasts GI20” value in series [2] (listed as 6-(4-hydroxybenzylamino)purine (para-topolin)) amounted to 138 µM. The midpoint of inhibition with Rat glioma C6 cells (Rattus norvegicus, C6, 0.5 h, 5 mM (−)-isoproterenol, 30 minutes, cAMP by ELISA), the IC50, lay at 7 µM. In addition, the “Anti-inflammatory activity (in words)” value in the series on Rat glioma C6 cells (setting [6]) is on record as “showed anti-inflammatory activity”. Further, the “Senescent cells (%)” value in series [3] (cell passage P20, listed as 6-(4-hydroxybenzylamino)purine (para-topolin)) is 4%; in series [3] (cell passage P40, listed as 6-(4-hydroxybenzylamino)purine (para-topolin)), 14%; in series [3] (cell passage P80, listed as 6-(4-hydroxybenzylamino)purine (para-topolin)), 25%. For the same molecule, the “ORAC Average(TE), Trolox equivalents on equimolar basis” value in series [4] (listed as 6-(4-hydroxybenzylamino)purine (pT)) is recorded as 16.799 TE. Moreover, the Solubility in series [5] (DMF, listed as p-topolin) is 5000 µg/mL (≈ 20700 µM); in series [5] (DMSO, organic solvent or mixture, thermodynamic from solid, DMSO, read-out: Solubility), 6660 µg/mL (≈ 27600 µM); in series [5] (acetone, organic solvent or mixture, thermodynamic from solid, acetone, read-out: Solubility), 200 µg/mL (≈ 829 µM); in series [5] (acetonitrile, organic solvent or mixture, thermodynamic from solid, acetonitrile, read-out: Solubility), less than 250 µg/mL; in series [5] (ethanol, organic solvent or mixture, thermodynamic from solid, ethanol, read-out: Solubility), 250 µg/mL (≈ 1040 µM); in series [5] (heptane, organic solvent or mixture, thermodynamic from solid, heptane, read-out: Solubility) it was less than 100 µg/mL. The same molecule yielded a Solubility in series [5] (methanol, listed as p-topolin) of 250 µg/mL (≈ 1040 µM).
Regarding `Oc1ccc(CNc2ncnc3nc[nH]c23)cc1` [para-topolin mesylate, 6-(4-hydroxybenzylamino) purine (para-topolin) mesylate (methylsulphonate)], the Mutagenicity entry in series [1] was “non-mutagenic”. In series [2] (listed as 6-(4-hydroxybenzylamino)purine mesylate (para-topolin mesylate)), the “Cytotoxicity for Human Diploid Fibroblasts GI20” value was more than 167 µM. Besides, the “Anti-inflammatory activity (in words)” value in the series on Rat glioma C6 cells (setting [6]) is “showed anti-inflammatory activity”. In the series with Rat glioma C6 cells (setting [6]), the “Anti-inflammatory activity relative to free base para-topolin” value is on record as “twice more active”. For the same molecule, the “Senescent cells (%)” value in series [3] (cell passage P20, listed as 6-(4-hydroxybenzylamino)purine mesylate (para-topolin mesylate)) came to 3%; in series [3] (cell passage P40, listed as 6-(4-hydroxybenzylamino)purine mesylate (para-topolin mesylate)), 12%; in series [3] (cell passage P80, listed as 6-(4-hydroxybenzylamino)purine mesylate (para-topolin mesylate)), 21%. For the same molecule, the “ORAC Average(TE), Trolox equivalents on equimolar basis” value in series [4] (listed as 6-(4-hydroxybenzylamino)purinium mesylate (pT mesylate)) is listed as 21.436 TE. The Solubility in series [5] (DMF, listed as p-topolin mesylate) is 14000 µg/mL; in series [5] (DMSO, listed as p-topolin mesylate) it was 10000 µg/mL; in series [5] (acetone, listed as p-topolin mesylate), 330 µg/mL; in series [5] (acetonitrile), less than 250 µg/mL; in series [5] (ethanol, listed as p-topolin mesylate), 400 µg/mL; in series [5] (heptane), less than 100 µg/mL. The Solubility in series [5] (methanol, listed as p-topolin mesylate) came out at 5000 µg/mL.

Source of the values: US12378247B2, “Mesylate salt of para-topolin, compositions containing said salt and use thereof” (USTAV EXPERIMENTALNI BOTANIKY AV CR, V. V. I., priority 2020, dated 2025).
